Measurements from patent publication US20190292155A1, “THERAPEUTIC INHIBITORY COMPOUNDS” (LifeSci Pharmaceuticals, Inc., priority 2016, published 2019).

The molecules below were run against T1, human complement factor D (Homo sapiens, UniProt P00746) (assay: In vitro enzyme inhibition of human complement factor D (Z-Lys-SBzl/DTNB, A405)). Conditions: biochemical assay, substrate Z-Lys-SBzl; read-out: CFD IC50.
T1 construct: purchased R&D Systems 1824-SE
T1 sequence (P00746 26-253): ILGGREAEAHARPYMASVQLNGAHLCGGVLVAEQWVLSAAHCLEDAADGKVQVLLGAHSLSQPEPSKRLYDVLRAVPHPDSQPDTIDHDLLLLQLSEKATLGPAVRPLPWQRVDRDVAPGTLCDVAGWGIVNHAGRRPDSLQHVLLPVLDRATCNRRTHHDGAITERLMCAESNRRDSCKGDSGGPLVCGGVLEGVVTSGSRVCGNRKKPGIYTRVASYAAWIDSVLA
Assay type: biochemical
Procedure: The ability of the compounds disclosed herein to inhibit human complement factor D inhibitory activity was quantified according to the 12-step protocol provided below. • 1. Prepare assay buffer: 50 mM Tris/HCl, pH 7.5, 1 M NaCl. • 2. […] Then dilute the serial concentrations of Nafamostat Mesilate 20-fold in assay buffer. • 3. […] 0.5% DMSO was in each well finally. • 4. […] Add 10 μl diluted test compounds duplicated into the 96-well plate. […] 0.5% DMSO was in each well finally. • 6. Dilute 20 mM substrate Z-Lys-SBzl (Bachem, Cat# M-1300) to 200 μM in assay buffer with 200 μM DTNB (Sigma, Catalog# D8130). • 7. […] Add 40 μl diluted Complement Factor D in the 96-well plate. • 8. Positive control well contains Complement Factor D without test compound. Negative control well contains neither Complement Factor D nor test compound. Using assay buffer, bring the total volume of all controls to 50 al. • 9. Pre-incubate the plate for 5 min at room temperature. • 10. Add 50 μl of diluted substrate/DTNB mixture into each well. […] For kinetic reading: Immediately start measuring absorbance (A405 nm) continuously and record data every 30 sec for 60 min. • 12. Data analysis • Inhibition activity of compound was evaluated by IC50. IC50 was calculated according the dose-response curve of compound fitted using GraphPadPrism with “log(inhibitor)-response (variable slope)” equation. • % inhibition was calculated by using following equation:
[formula] • Mean(NC): The average value of the negative control wells' A405 nm values. • Mean(PC): The average value of the positive control wells' A405 nm values.
Molecule `C[C@@H](C(=O)Nc1cccc(Cl)c1F)N(C)C(=O)Cn1nc(C(N)=O)c2ccccc21` [Example 2, (S)-1-(2-((1-((3-chloro-2-fluorophenyl)amino)-1-oxopropan-2-yl)(methyl)amino)-2-oxoethyl)-1H-indazole-3-carboxamide] has an IC50 of 1000 to 10000 nM.
`C[C@@H](C(=O)NCc1cccc(Cl)c1F)N(C)C(=O)Cn1nc(C(N)=O)c2ccccc21` [Example 3, (S)-1-(2-((1-((3-chloro-2-fluorobenzyl)amino)-1-oxopropan-2-yl)(methyl)amino)-2-oxoethyl)-1H-indazole-3-carboxamide] gave an IC50 of 1000 to 10000 nM.
Work on `NC(=O)c1nn(CC(=O)N(CC(=O)Nc2cccc(Cl)c2F)C2CC2)c2ccccc12` [Example 7, 1-(2-((2-((3-chloro-2-fluorophenyl)amino)-2-oxoethyl)(cyclopropyl)amino)-2-oxoethyl)-1H-indazole-3-carboxamide] yielded an IC50 of 100 to 1000 nM.
Molecule `CC1(C)CC(O)CC(NC(=O)CN(C(=O)Cn2nc(C(N)=O)c3ccccc32)C2CC2)C1` (centres unmarked) [Example 9, 1-(2-(cyclopropyl(2-((5-hydroxy-3,3-dimethylcyclohexyl)amino)-2-oxoethyl)amino)-2-oxoethyl)-1H-indazole-3-carboxamide] has an IC50 of 1000 to 10000 nM.
`CC1(C)C[C@H](O)C[C@@H](NC(=O)CN(C(=O)Cn2nc(C(N)=O)c3ccccc32)C2CC2)C1` [Example 10, 1-(2-(cyclopropyl(2-(((1S,5S)-5-hydroxy-3,3-dimethylcyclohexyl)amino)-2-oxoethyl)amino)-2-oxoethyl)-1H-indazole-3-carboxamide] showed an IC50 of 1000 to 10000 nM.
Work on `NC(=O)c1nn(CC(=O)N(CCO)CC(=O)Nc2cccc(Cl)n2)c2ccccc12` [Example 13, 1-(2-((2-((6-chloropyridin-2-yl)amino)-2-oxoethyl)(2-hydroxyethyl)amino)-2-oxoethyl)-1H-indazole-3-carboxamide] yielded an IC50 of 1000 to 10000 nM.
`CN(CC(=O)Nc1cccc(Cl)n1)C(=O)Cn1nc(C(N)=O)c2ccccc21` [Example 14, 1-(2-((2-((6-chloropyridin-2-yl)amino)-2-oxoethyl)(methyl)amino)-2-oxoethyl)-1H-indazole-3-carboxamide] was tested, and the IC50 was 1000 to 10000 nM.
For `CCN(CC(=O)Nc1cccc(Cl)n1)C(=O)Cn1nc(C(N)=O)c2ccccc21` [Example 15, 1-(2-((2-((6-chloropyridin-2-yl)amino)-2-oxoethyl)(ethyl)amino)-2-oxoethyl)-1H-indazole-3-carboxamide], the IC50 was 100 to 1000 nM.
In the case of `NC(=O)c1nn(CC(=O)N(CC(=O)Nc2cccc(Cl)n2)C2CCNCC2)c2ccccc12` [Example 17, 1-(2-((2-((6-chloropyridin-2-yl)amino)-2-oxoethyl)(piperidin-4-yl)amino)-2-oxoethyl)-1H-indazole-3-carboxamide], the IC50 is reported as 1000 to 10000 nM.
`NCCN(CC(=O)Nc1cccc(Cl)n1)C(=O)Cc1nn(C(N)=O)c2ccccc12` [Example 18, 3-(2-((2-aminoethyl)(2-((6-chloropyridin-2-yl)amino)-2-oxoethyl)amino)-2-oxoethyl)-1H-indazole-1-carboxamide] showed an IC50 of 1000 to 10000 nM.
`NC(=O)n1nc(CC(=O)N(CC(=O)Nc2cccc(Cl)n2)C2CCCC2)c2ccccc21` [Example 19, 3-(2-((2-((6-chloropyridin-2-yl)amino)-2-oxoethyl)(cyclopentyl)amino)-2-oxoethyl)-1H-indazole-1-carboxamide] was tested, and the IC50 was 100 to 1000 nM.
Molecule `NC(=O)n1nc(CC(=O)N(CC(=O)Nc2cccc(Cl)n2)C2CCOCC2)c2ccccc21` [Example 21, 3-(2-((2-((6-chloropyridin-2-yl)amino)-2-oxoethyl)(tetrahydro-2H-pyran-4-yl)amino)-2-oxoethyl)-1H-indazole-1-carboxamide] has an IC50 of 1000 to 10000 nM.
For `NC(=O)c1nn(CC(=O)N(CC(=O)Nc2cccc(Cl)n2)C2CNC2)c2ccccc12` [Example 22, 1-(2-(azetidin-3-yl(2-((6-chloropyridin-2-yl)amino)-2-oxoethyl)amino)-2-oxoethyl)-1H-indazole-3-carboxamide], the IC50 was 1000 to 10000 nM.
`CNCCN(CC(=O)Nc1cccc(Cl)n1)C(=O)Cn1nc(C(N)=O)c2ccccc21` [Example 23, 1-(2-((2-((6-chloropyridin-2-yl)amino)-2-oxoethyl)(2-(methylamino)ethyl)amino)-2-oxoethyl)-1H-indazole-3-carboxamide] showed an IC50 of 1000 to 10000 nM.
`CC(=O)NCCN(CC(=O)Nc1cccc(Cl)n1)C(=O)Cn1nc(C(N)=O)c2ccccc21` [Example 24, 1-(2-((2-acetamidoethyl)(2-((6-chloropyridin-2-yl)amino)-2-oxoethyl)amino)-2-oxoethyl)-1H-indazole-3-carboxamide] gave an IC50 of 1000 to 10000 nM.
For `NC(=O)c1nn(CC(=O)N(CC(=O)Nc2cccc(Cl)n2)Cc2ccncc2)c2ccccc12` [Example 25, 1-(2-((2-((6-chloropyridin-2-yl)amino)-2-oxoethyl)(pyridin-4-ylmethyl)amino)-2-oxoethyl)-1H-indazole-3-carboxamide], the IC50 was > 10000 nM.
`NC(=O)c1nn(CC(=O)N(CC(=O)Nc2cccc(Cl)n2)C2CCNC2)c2ccccc12` (centres unmarked) [Example 26, 1-(2-((2-((6-chloropyridin-2-yl)amino)-2-oxoethyl)(pyrrolidin-3-yl)amino)-2-oxoethyl)-1H-indazole-3-carboxamide] gave an IC50 of 1000 to 10000 nM.
`NC(=O)c1nn(CC(=O)N(CC(=O)NCc2cccc(Cl)c2F)Cc2ccsc2)c2ccccc12` [Example 27, 1-(2-((2-((3-chloro-2-fluorobenzyl)amino)-2-oxoethyl)(thiophen-3-ylmethyl)amino)-2-oxoethyl)-1H-indazole-3-carboxamide] showed an IC50 of 1000 to 10000 nM.
With `NC(=O)c1nn(CC(=O)N(CC(=O)NCc2cccc(Cl)c2F)C2CCOCC2)c2ccccc12` [Example 29, 1-(2-((2-((3-chloro-2-fluorobenzyl)amino)-2-oxoethyl)(tetrahydro-2H-pyran-4-yl)amino)-2-oxoethyl)-1H-indazole-3-carboxamide] the IC50 was 1000 to 10000 nM.
`NCCN(CC(=O)NCc1cccc(Cl)c1F)C(=O)Cn1nc(C(N)=O)c2ccccc21` [Example 31, 1-(2-((2-aminoethyl)(2-((3-chloro-2-fluorobenzyl)amino)-2-oxoethyl)amino)-2-oxoethyl)-1H-indazole-3-carboxamide] was tested, and the IC50 was 100 to 1000 nM.
For `NC(=O)c1nn(CC(=O)N(CC(=O)NCc2cccc(Cl)c2F)Cc2ccncc2)c2ccccc12` [Example 32, 1-(2-((2-((3-chloro-2-fluorobenzyl)amino)-2-oxoethyl)(pyridin-4-ylmethyl)amino)-2-oxoethyl)-1H-indazole-3-carboxamide], the IC50 was 1000 to 10000 nM.
`NC(=O)c1nn(CC(=O)N(CC(=O)NCc2cccc(Cl)c2F)Cc2cccnc2)c2ccccc12` [Example 35, 1-(2-((2-((3-chloro-2-fluorobenzyl)amino)-2-oxoethyl)(pyridin-3-ylmethyl)amino)-2-oxoethyl)-1H-indazole-3-carboxamide] was tested, and the IC50 was 1000 to 10000 nM.
`NC(=O)c1nn(CC(=O)N(CC(=O)NCc2cccc(Cl)c2F)c2ccccc2)c2ccccc12` [Example 36, 1-(2-((2-((3-chloro-2-fluorobenzyl)amino)-2-oxoethyl)(phenyl)amino)-2-oxoethyl)-1H-indazole-3-carboxamide] showed an IC50 of 1000 to 10000 nM.
`NC(=O)c1nn(CC(=O)N(CC(=O)NCc2cccc(Cl)c2F)C2CCNC2)c2ccccc12` (centres unmarked) [Example 37, 1-(2-((2-((3-chloro-2-fluorobenzyl)amino)-2-oxoethyl)(pyrrolidin-3-yl)amino)-2-oxoethyl)-1H-indazole-3-carboxamide] gave an IC50 of 1000 to 10000 nM.
`C[C@H](C(=O)NCc1cccc(Cl)c1F)N(C(=O)Cn1nc(C(N)=O)c2ccccc21)C1CC1` [Example 38, (R)-1-(2-((1-((3-chloro-2-fluorobenzyl)amino)-1-oxopropan-2-yl)(cyclopropyl)amino)-2-oxoethyl)-1H-indazole-3-carboxamide] was tested, and the IC50 was 1000 to 10000 nM.
For `C[C@@H](C(=O)NCc1cccc(Cl)c1F)N(C(=O)Cn1nc(C(N)=O)c2ccccc21)C1CC1` [Example 39, (S)-1-(2-((1-((3-chloro-2-fluorobenzyl)amino)-1-oxopropan-2-yl)(cyclopropyl)amino)-2-oxoethyl)-1H-indazole-3-carboxamide], the IC50 was > 10000 nM.
In the case of `NC(=O)n1cc(CC(=O)N(CC(=O)NCc2cccc(Cl)c2F)C2CC2)c2ccccc21` [Example 41, 3-(2-((2-((3-chloro-2-fluorobenzyl)amino)-2-oxoethyl)(cyclopropyl)amino)-2-oxoethyl)-1H-indole-1-carboxamide], the IC50 is reported as 100 to 1000 nM.
Work on `NC(=O)c1nc(CC(=O)N(CC(=O)NCc2cccc(Cl)c2F)C2CC2)n2ccccc12` [Example 42, 3-(2-((2-((3-chloro-2-fluorobenzyl)amino)-2-oxoethyl)(cyclopropyl)amino)-2-oxoethyl)imidazo[1,5-a]pyridine-1-carboxamide] yielded an IC50 of 100 to 1000 nM.
With `NC(=O)c1cc(C(F)(F)F)n(CC(=O)N(CC(=O)NCc2cccc(Cl)c2F)C2CC2)n1` [Example 43, 1-(2-((2-((3-chloro-2-fluorobenzyl)amino)-2-oxoethyl)(cyclopropyl)amino)-2-oxoethyl)-5-(trifluoromethyl)-1H-pyrazole-3-carboxamide] the IC50 was > 10000 nM.
